The results in this text go back to patent publication US9073914B2, “Substituted alkyl pyrimidin-4-one derivatives” (SANOFI, priority 2008, dated 2015).

In one data set the target is GSK3β (Homo sapiens, UniProt P49841). In words: Inhibitory activity against GSK3β (33P-ATP phosphorylation of prephosphorylated GS1 peptide, four protocols). It counts as biochemical. How it is done:
Test Example:Inhibitory Activity of the Medicament of the Present Invention Against GSK3β Four different protocols can be used. In a first protocol: 7.5 μM of prephosphorylated GS1 peptide and 10 μM ATP (containing 300,000 cpm of ^33P-ATP) were incubated in 25 mM Tris-HCl, pH 7.5, 0.6 mM DTT, 6 mM MgCl2, 0.6 mM EGTA, 0.05 mg/ml BSA buffer for 1 hour at room temperature in the presence of GSK3beta (total reaction volume: 100 microliters). In a second protocol: 4.1 μM of prephosphorylated GS1 peptide and 42 μM ATP (containing 260,000 cpm ^33P-ATP) were incubated in 80 mM Mes-NaOH, pH 6.5, 1 mM Mg acetate, 0.5 mM EGTA, 5 mM 2-mercaptoethanol, 0.02% Tween 20, 10% glycerol buffer for 2 hours at room temperature in the presence of GSK3beta. In a third protocol: 7.5 μM of prephosphorylated GS1 peptide and 10 μM ATP (containing 300,000 cpm of ^33P-ATP) were incubated in 50 mM Hepes, pH 7.2, 1 mM DTT, 1 mM MgCl2, 1 mM EGTA, 0.01% Tween 20 buffer for one hour at room temperature in the presence of GSK3beta (total reaction volume: 100 microliters). […] Incorporated ^33P radioactivity was determined by liquid scintillation spectrometry. […]

Sequence of GSK3β (P49841 whole entry): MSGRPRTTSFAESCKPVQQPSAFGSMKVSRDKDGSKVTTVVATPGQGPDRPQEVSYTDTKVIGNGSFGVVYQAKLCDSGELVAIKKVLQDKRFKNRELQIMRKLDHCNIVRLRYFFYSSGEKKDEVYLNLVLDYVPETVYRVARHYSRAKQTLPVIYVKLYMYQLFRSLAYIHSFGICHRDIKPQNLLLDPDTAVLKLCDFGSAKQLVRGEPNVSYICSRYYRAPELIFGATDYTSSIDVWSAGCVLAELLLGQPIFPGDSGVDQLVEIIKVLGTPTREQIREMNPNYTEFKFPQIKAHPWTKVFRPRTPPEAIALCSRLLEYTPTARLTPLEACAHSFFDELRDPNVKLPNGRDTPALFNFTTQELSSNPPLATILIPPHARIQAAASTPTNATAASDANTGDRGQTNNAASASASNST

With `O=c1cc(-c2ccncn2)nc2n1CCCCC2C1CC1` (racemic) [Compound No 20 of table 2, (+/−)-10-Cyclopropyl-2-pyrimidin-4-yl-7,8,9,10-tetrahydro-6H-pyrimido[1,2-α]azepin-4-one], the melting point (as a rule, the temperature of the solid-liquid transition) was in the range of 130 to 132 °C. Besides, 8 nM corresponded to half-maximal inhibition at GSK3β (protocol 4 (commercial GSK3beta, Millipore; 10 μM ATP; 90 minutes)) (IC50). For the compound “(+/−)-9-Ethyl-4-oxo-2-pyrimidin-4-yl-5,6,8,9-tetrahydro-4H-1,4-a,7-triaza-benzocycloheptene-7-carboxylic acid ethyl ester [Compound No 1 of table 3]”, the “inhibition of GSK3β” value against GSK3β (at 1 μM) was found to be 63%.
